Data: patent US7211120B2, “Method for forming a pattern of an organic semiconductor film” (Canon Kabushiki Kaisha, priority 2002, dated 2007)

How the values were obtained:
Assay type in all cases: physicochemical
[1] = Light-fastness test of printed colour patch with xenon fade meter; details: Reference Example printed article; 70 Kl×, 520 hours, 24° C., 60% RH
Description: (§1) Reddish purple color square patches of 1 cm×1 cm were printed on a recording medium (trade name: PR-101; manufactured by Canon Inc.) using the above two types of ink on an ink-jet printer, trade name: BJ-F 870; manufactured by Canon Inc. The color patches of Example 2 were heat treated at 120° C. for 1 minute for retro-Diels-Alder reaction of the compound 7 and converted into cyan color patch. The resultant color patches of Example 2 and Reference Example were tested for their light-fastness, gas-fastness, water-fastness and moisture-fastness.
Light-exposure-fastness test was conducted with a xenone fade meter in accordance with the following test conditions. This was to test fastness of an image mimicking sunlight entering through a window in a room.
• Irradiation Intensity: 70 Kl×testing duration 520 hours • Temperature/humidity conditions in a testing vessel: 24° C., 60% RH • Filter: soda lime (outer), borosilicate (inner)
The light-fastness was evaluated as follows: • A: Density remaining rate of 90% or more • B: Density remaining rate of 89 to 80% • C: Density remaining rate of 79% or less (Gas-fastness)

[2] = Gas-fastness test of printed colour patch with gas corrosion tester; details: Reference Example printed article; mixed gas, 72 hours, 24° C., 60% RH
Description: as §1
Gas-exposure-fastness testing was conducted with a gas corrosion tester under the following test conditions (ANSI/ISA-S71.04-1985). This was to test fastness of an image assuming the effects of various gases in a room.
• Exposing gas composition: H2S: 50 ppb, SO2: 300 ppb, NO2: 1250 ppb, Cl2: 10 ppb, O3: 1200 ppb • Testing duration: 72 hours, Temperature/humidity conditions in a testing vessel: 24° C., 60% RH
The gas-fastness was evaluated as follows: • A: Density remaining rate of 90% or more • B: Density remaining rate of 89 to 80% • C: Density remaining rate of 79% or less (Water-fastness)

[3] = Water-fastness test, recorded article immersed in city water; details: Reference Example printed article; city water 5 minutes
Description: as §1
The obtained recorded article was immersed in city water for 5 minutes, drawn up from the water and dried, and its change in density before and after the test was determined. • A: Density reduction rate of 1% or less. • B: Density reduction rate of 2 to 4% • C: Density reduction rate of 5% or more (Humidity-fastness)

[4] = Humidity-fastness test, recorded article stored in thermo-hydrostat vessel; details: Reference Example printed article; 30° C., 80% RH, 1 week
Description: as §1
The obtained recorded article was stored in a thermo-hydrostat vessel at 30° C., 80% RH for 1 week, drawn from the vessel and dried, and its change in density before and after the test was determined. • A: Density reduction rate of 1% or less • B: Density reduction rate of 2 to 4% • C: Density reduction rate of 5% or more.

Water-fastness [3]: C (Density reduction rate of 5% or more)
Humidity-fastness [4]: B (Density reduction rate of 2 to 4%)
Substance: C.I. Direct Blue 199 [DBL-199]
Light-fastness [1]: A (Density remaining rate of 90% or more)
Gas-fastness [2]: C (Density remaining rate of 79% or less)
